Laboratory results: patent US12636275B2, “Pharmaceutical use of ketoamide-based compound” (Shanghai Institute of Materia Medica, Chinese Academy of …, priority 2020, dated 2026)

What follows are molecules tested against T1, 2019-nCoV 3CL protease (Severe acute respiratory syndrome coronavirus 2, UniProt P0DTD1) (assay: Inhibitory activity against 3CL protease of 2019 novel coronavirus (FRET)). Conditions: FRET, 37° C., substrate 20 μM.
T1 construct: against 3CL protease of 2019 novel coronavirus (2019-nCoV 3CL^pro)
Format: biochemical
Protocol: To determine the inhibitory activity of the compound against 3CL protease of 2019 novel coronavirus (2019-nCoV 3CL^pro): the enzyme level inhibitory activity of inhibitors against 3CL protease was determined by fluorescence resonance energy transfer (FRET) technology. In a 96-well plate, 27.5 μL of buffer (20 mM Tris, 100 mM NaCl, 1 mM EDTA, pH 7.4) was added to each well, 2.5 μL compounds ([…], respectively) and 5 μL […] (final concentration was 3 μM) were added at the same time. Incubated at 37° C. for 15 min. Then 15 μL fluorescent substrate diluted with buffer (final concentration was 20 μM) was added. The fluorescence parameters were determined by Ge n5 fluorescence spectrophotometer. The excitation wavelength and emission wavelength were 340 nm and 490 nm respectively, kept at 37° C., and the data were read after 10 min. A negative control was used, in which no compound was added to the control, and the rest was the same.
`CC(C)(C)NC(=O)C(=O)[C@H](C[C@@H]1CCCNC1=O)NC(=O)[C@H](CC1CCCCC1)NC(=O)c1cc2ccccc2[nH]1` [Example A6, N—((S)-1-(((S)-4-(tert-butylamino)-3,4-dione-1-((S)-2-oxopiperidin-3-yl)but-2-yl)amino)-3-cyclohexyl-1-oxopropan-2-yl)-1H-indole-2-carboxamide] showed an IC50 of 25.3 µM.
`O=C(NCc1ccccc1)C(=O)[C@H](C[C@@H]1CCNC1=O)NC(=O)[C@H](CC1CCCCC1)NC(=O)c1cc2ccccc2s1` [Example A17, N—((S)-1-(((S)-4-(benzylamino)-3,4-dione-1-((S)-2-oxopyrrolidin-3-yl)but-2-yl)amino)-3-cyclohexyl-1-oxopropan-2-yl)-benzothiophene-2-carboxamide] showed an IC50 of 12.5 µM.
For `Cn1c(C(=O)N[C@@H](CC2CCCCC2)C(=O)N[C@@H](C[C@@H]2CCCNC2=O)C(=O)C(=O)NC(C)(C)C)cc2ccccc21` [Example A28, N—((S)-1-(((S)-4-(tert-butylamino)-3,4-dione-1-((S)-2-oxopiperidin-3-yl)but-2-yl)amino)-3-cyclohexyl-1-oxopropan-2-yl)-1-methyl-1H-indole-2-carboxamide], the IC50 was 15.2 µM.
`Cn1c(C(=O)N[C@@H](CC2CCCCC2)C(=O)N[C@@H](C[C@@H]2CCCNC2=O)C(=O)C(=O)NC2CCCCC2)cc2ccccc21` [Example A29, N—((S)-3-cyclohexyl-1-(((S)-4-(cyclohexylamino)-3,4-dione-1-((S)-2-oxopiperidin-3-yl)but-2-yl)amino)-3-cyclohexyl-1-oxopropan-2-yl)-1-methyl-1H-indole-2-carboxamide] gave an IC50 of 9.8 µM.
For `O=C(NC1CCCCC1)C(=O)[C@H](C[C@@H]1CCNC1=O)NC(=O)[C@H](Cc1ccccc1)NC(=O)c1cc2ccccc2o1` [Example A56], the IC50 was 24.1 µM.
Molecule `O=C(NC1CCCCC1)C(=O)[C@H](C[C@@H]1CCCNC1=O)NC(=O)[C@H](Cc1ccccc1)NC(=O)c1cc2ccccc2o1` [Example A59] has an IC50 of 23.5 µM.
`CC(C)C[C@H](NC(=O)c1cc2ccccc2[nH]1)C(=O)N[C@@H](C[C@@H]1CCNC1=O)C(=O)C(=O)NCc1ccccc1` [Example A90, N—((S)-1-(((S)-4-(benzylamino)-3,4-dione-1-((S)-2-oxopyrrolidin-3-yl)but-2-yl)amino)-4-methyl-1-oxopentan-2-yl)-1H-indole-2-carboxamide] was tested, and the IC50 was 25.2 µM.
`CC(C)C[C@H](NC(=O)c1cc2c(Cl)cc(Cl)cc2[nH]1)C(=O)N[C@@H](C[C@@H]1CCNC1=O)C(=O)C(=O)NC(C)(C)C` [Example A115] gave an IC50 of 6.5 µM.
`O=C(NCc1ccccc1)C(=O)[C@H](C[C@@H]1CCNC1=O)NC(=O)[C@H](Cc1ccccc1)NC(=O)c1cn2cc(Br)ccc2n1` [Example A156] was tested, and the IC50 was 4.7 µM.
In the case of `COc1cc(OC)c2cc(C(=O)N[C@@H](Cc3ccccc3)C(=O)N[C@@H](C[C@@H]3CCNC3=O)C(=O)C(=O)NC(C)(C)C)[nH]c2c1` [Example A221, N—((S)-1-(((S)-4-(tert-butylamino)-3,4-dione-1-((S)-2-oxopyrrolidin-3-yl)but-2-yl)amino)-1-oxo-3-phenylpropan-2-yl)-4,6-dimethoxy-1H-indole-2-carboxamide], the IC50 is reported as 5.8 µM.
Work on `CC(C)NC(=O)CC[C@H](NC(=O)[C@H](Cc1ccccc1)NC(=O)c1cc2ccccc2[nH]1)C(=O)C(=O)NCC1CCCCC1` [Example A234] yielded an IC50 of 10.3 µM.
`CC(C)NC(=O)CC[C@H](NC(=O)[C@H](CC1CCCCC1)NC(=O)c1cnc2ccccc2n1)C(=O)C(=O)NCc1ccccc1` [Example A236, N—((S)-1-(((S)-4-(benzyl)-3,4-dione-1-(isopropylamino)-2-yl)amino)-3-(cyclohexyl)-1-oxopropan-2-yl)-quinoxaline-2-carboxamide] was tested, and the IC50 was 4.5 µM.
Work on `CC(C)NC(=O)CC[C@H](NC(=O)[C@H](Cc1ccccc1)NC(=O)c1cnc2ccccc2n1)C(=O)C(=O)NCc1ccccc1` [Example A238] yielded an IC50 of 4.8 µM.
In the case of `O=C(CC[C@H](NC(=O)[C@H](Cc1ccccc1)NC(=O)c1cnc2ccccc2n1)C(=O)C(=O)NCc1ccccc1)NC1CCCCC1` [Example A239, N—((S)-1-(((S)-4-(benzyl)-3,4-dione-1-(cyclohexylamino)-2-yl)amino)-3-(phenyl)-1-oxopropan-2-yl)-quinoxaline-2-carboxamide], the IC50 is reported as 3.8 µM.
Molecule `O=C(NC1CCCCC1)C(=O)[C@H](C[C@@H]1CCCNC1=O)NC(=O)[C@H](CC1CCCCC1)NC(=O)c1cc2cccc(Br)c2o1` [Example A257, N—((S)-1-(((S)-4-(cyclohexylamino)-3,4-dione-1-((S)-2-oxopiperidin-3-yl)but-2-yl)amino)-3-cyclohexyl-1-oxopropan-2-yl)-6-bromo-benzofuran-2-carboxamide] has an IC50 of 5.2 µM.
In the case of `CCOc1ccc2oc(C(=O)N[C@@H](CC3CCCCC3)C(=O)N[C@@H](C[C@@H]3CCCNC3=O)C(=O)C(=O)NCc3ccccc3)cc2c1` [Example A259, N—((S)-1-(((S)-4-(benzylamino)-3,4-dione-1-((S)-2-oxopiperidin-3-yl)but-2-yl)amino)-3-cyclohexyl-1-oxopropan-2-yl)-5-ethoxyl-benzofuran-2-carboxamide], the IC50 is reported as 9.5 µM.
`O=C(NCc1ccccc1)C(=O)[C@H](C[C@@H]1CCCNC1=O)NC(=O)[C@H](CC1CCCCC1)NC(=O)c1cccnn1` [Example A268, N—((S)-1-(((S)-4-(benzylamino)-3,4-dione-1-((S)-2-oxopiperidin-3-yl)but-2-yl)amino)-3-cyclohexyl-1-oxopropan-2-yl)-pyridazine-2-carboxamide] gave an IC50 of 5.6 µM.
For `O=C(NCc1ccccc1)C(=O)[C@H](C[C@@H]1CCCNC1=O)NC(=O)[C@H](CC1CCCCC1)NC(=O)c1cc2c(F)c(F)ccc2[nH]1` [Example A269, N—((S)-1-(((S)-4-(benzylamino)-3,4-dione-1-((S)-2-oxopiperidin-3-yl)but-2-yl)amino)-3-cyclohexyl-1-oxopropan-2-yl)-4,5-indole-2-carboxamide], the IC50 was 8.8 µM.
With `O=C(NCc1cc(F)cc(F)c1)C(=O)[C@H](C[C@@H]1CCCNC1=O)NC(=O)[C@H](CC1CCCCC1)NC(=O)c1cc2ccccc2o1` [Example A270, N—((S)-1-(((S)-4-(3,5-difluorobenzylamino)-3,4-dione-1-((S)-2-oxopiperidin-3-yl)but-2-yl)amino)-3-cyclohexyl-1-oxopropan-2-yl)-benzofuran-2-carboxamide] the IC50 was 7.6 µM.
`Cc1ccc(CN(C)C(=O)C(=O)[C@H](C[C@@H]2CCCNC2=O)NC(=O)[C@H](CC2CCCCC2)NC(=O)c2cc3ccccc3o2)cc1` [Example A272, N—((S)-1-(((S)-4-(4-methylbenzylmethylamino)-3,4-dione-1-((S)-2-oxopiperidin-3-yl)but-2-yl)amino)-3-cyclohexyl-1-oxopropan-2-yl)-benzofuran-2-carboxamide] was tested, and the IC50 was 4.8 µM.
Work on `O=C(NCc1ccc(-c2ccccc2)cc1)C(=O)[C@H](C[C@@H]1CCCNC1=O)NC(=O)[C@H](CC1CCCCC1)NC(=O)c1cc2ccccc2o1` [Example A275] yielded an IC50 of 5.8 µM.
With `CC(C)(C)NC(=O)C(=O)[C@H](C[C@@H]1CCNC1=O)NC(=O)[C@H](Cc1ccccc1)NC(=O)c1cc2ccccc2o1` [Example A291, N—((S)-1-(((S)-4-(tert-butylamino)-3,4-dione-1-((S)-2-oxopyrrolidin-3-yl)but-2-yl)amino)-3-phenyl-1-oxopropan-2-yl)-benzofuran-2-carboxamide] the IC50 was 15.2 µM.
`C[C@@H](NC(=O)C(=O)[C@H](C[C@@H]1CCNC1=O)NC(=O)[C@H](CC1CCCCC1)NC(=O)c1ccc2ccccc2n1)c1ccccc1` [Example A293] gave an IC50 of 26.4 µM.
